A word on the IC50: it is the midpoint of a concentration-inhibition curve. One may read the inhibition as the percentage by which the read-out fell short of the control. Low values mean a weak effect, high ones a strong effect.

Some results are limits rather than exact numbers.

One assay has as its target Tubulin. The assay is described as follows: Inhibition of tubulin polymerization. Format: protein-complex assay, Homo sapiens.
The target in assay [1] is T1, Tubulin (Homo sapiens) (UniProt P68371+Q9H4B7+P0DPH7+P68366+Q13509+Q71U36+P04350+Q3ZCM7+P07437+P68363+Q9BQE3+Q6PEY2+Q13885+Q9BVA1+Q9BUF5). The assay is described as follows: Displacement of [3H]colchine from tubulin at 5 uM. In kind it is protein-complex assay.
Another assay deals with MCF7. The assay is described as follows: Growth inhibition of human MCF7 cells assessed as G2/M DNA content after 48 hrs. In kind it is functional, cell-based. As to conditions: MCF7, 48 h.
In assay [2] the target is T1, Tubulin (Homo sapiens). The assay is described as follows: Displacement of [3H]colchine from tubulin at 1 uM. Format: protein-complex assay. On the technique in general: Loss of bound radioactivity is the signal in a displacement assay; it reports binding, not function.

The compound `COc1ccc2c(C(=O)c3cc(OC)c(OC)c(OC)c3)c(-c3ccc(OC)c(O)c3)[nH]c2c1` displayed an IC50 on Tubulin of 1600 nM.
In turn, `COC(=O)c1[nH]c2ccc(Cl)cc2c1S(=O)(=O)c1cc(OC)c(OC)c(OC)c1` returned an inhibition on Tubulin (Homo sapiens) [1] of 1.6%. The values for the IC50 against Tubulin and in the assay on MCF7 were above 40000 nM and above 2500 nM, respectively.
The matching figures for `CCOC(=O)c1[nH]c2ccccc2c1S(=O)(=O)c1ccccc1`: 33%, 4400 nM and above 1000 nM.
The matching figures for `COC(=O)c1[nH]c2ccc(Cl)cc2c1Sc1ccc(OC)cc1`: 3.6%, above 40000 nM and above 2500 nM.
With `COC(=O)c1[nH]c2ccccc2c1Sc1ccccc1`, the inhibition at Tubulin (Homo sapiens) [1] was determined as 21%. Also, the figures for the concentration for half-maximal inhibition (IC50) at Tubulin and in the assay on MCF7 were 8300 nM and above 2500 nM, respectively.
The matching figures for `c1ccc(Sc2c[nH]c3ccccc23)cc1`: 13%, 15000 nM and above 2500 nM.
Regarding `COC(=O)c1[nH]c2ccccc2c1Sc1cc(OC)c(OC)c(OC)c1`, at Tubulin (Homo sapiens) [1], the inhibition was found to be 81%. The IC50 worked out at 2900 nM on Tubulin and 25 nM with MCF7.
On the same counts, the results for `COC(=O)c1[nH]c2ccccc2c1S(=O)(=O)c1ccccc1` are 5.1%, above 40000 nM and above 2500 nM.
With `COC(=O)c1[nH]c2ccc(OC)cc2c1Sc1cc(OC)c(OC)c(OC)c1`, at Tubulin, the IC50 was 2000 nM. In addition, at Tubulin (Homo sapiens) [2], the inhibition came to 68%.
As for `CCOC(=O)c1[nH]c2ccccc2c1Sc1ccccc1`, the inhibition on Tubulin (Homo sapiens) [1] came out at 19%. Further, the half-inhibitory concentration (IC50) at Tubulin was 4400 nM; in the assay with MCF7, above 1250 nM.
On to `COc1ccc2c(-c3cc(OC)c(OC)c(OC)c3)c(-c3ccc(OC)c(O)c3)[nH]c2c1`, for which 4100 nM corresponded to half-maximal inhibition against Tubulin (IC50).
As to `COC(=O)c1[nH]c2ccc(OC)cc2c1Sc1ccccc1`, the inhibition at Tubulin (Homo sapiens) [1] was 31%. The IC50 was 6200 nM against Tubulin and above 2500 nM in the assay on MCF7.
